{"source": "ChEMBL document CHEMBL1201862", "about": "“PubChem BioAssay data set” (2004)", "key": {"[1]": {"target": "G-protein coupled receptor 35 (Homo sapiens, UniProt Q9HC97)", "sequence (Q9HC97 whole entry)": "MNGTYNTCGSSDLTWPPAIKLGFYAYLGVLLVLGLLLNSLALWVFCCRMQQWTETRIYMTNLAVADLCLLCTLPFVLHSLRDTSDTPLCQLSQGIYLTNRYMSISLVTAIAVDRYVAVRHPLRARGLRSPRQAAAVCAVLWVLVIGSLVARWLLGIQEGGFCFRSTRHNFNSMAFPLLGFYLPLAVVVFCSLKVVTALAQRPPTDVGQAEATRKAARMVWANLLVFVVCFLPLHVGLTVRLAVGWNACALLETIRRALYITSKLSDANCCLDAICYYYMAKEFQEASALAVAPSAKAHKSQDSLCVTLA", "assay": "GPR35 antagonists blocking zaprinast-driven arrestin recruitment, primary screen, imaging, U2OS, beta-arrestin-GFP, zaprinast agonist (AID 2058);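 also: antagonist potency meaning inhibition of agonist-induced arrestin redistribution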", "format": "functional"}, "[2]": {"target": "T1, Heat shock 70 kDa protein 1A (Homo sapiens, UniProt P0DMV8)", "T1 sequence (P0DMV8 whole entry)": "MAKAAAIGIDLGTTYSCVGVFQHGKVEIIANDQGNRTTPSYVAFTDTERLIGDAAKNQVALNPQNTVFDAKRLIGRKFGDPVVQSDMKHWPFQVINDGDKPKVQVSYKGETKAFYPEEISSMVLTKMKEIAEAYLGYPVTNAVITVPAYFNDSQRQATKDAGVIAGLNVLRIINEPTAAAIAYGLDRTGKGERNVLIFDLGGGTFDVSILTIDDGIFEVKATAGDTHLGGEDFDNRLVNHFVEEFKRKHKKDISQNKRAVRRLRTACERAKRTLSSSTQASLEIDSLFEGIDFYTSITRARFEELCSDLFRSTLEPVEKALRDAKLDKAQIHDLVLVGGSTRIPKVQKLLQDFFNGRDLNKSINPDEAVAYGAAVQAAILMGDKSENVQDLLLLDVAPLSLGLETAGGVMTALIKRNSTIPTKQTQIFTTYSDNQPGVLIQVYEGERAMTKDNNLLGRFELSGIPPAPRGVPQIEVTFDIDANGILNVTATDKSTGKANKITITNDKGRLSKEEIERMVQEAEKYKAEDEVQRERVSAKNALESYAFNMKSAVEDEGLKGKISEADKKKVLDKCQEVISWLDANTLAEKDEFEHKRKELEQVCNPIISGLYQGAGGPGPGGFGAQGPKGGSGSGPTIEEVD", "assay": "Hsp70 inhibitors, probe displacement, primary screen, biochemical, fluorescence polarization (AID 583)"}, "[3]": {"assay": "Luminescence Cell-Based Dose Confirmation HTS to Identify Activators of 5'UTR Stem-Loop Driven Alpha-Synuclein mRNA Translation in H4 Neuroglioblastoma Cells. [Related pubchem assays: 1829 (Project Summary), 1814 (Primary HTS)]", "format": "functional"}, "[4]": {"assay": "growth suppression of PTEN-null colon cells, dose response, cell-based, HCT116 PTEN knockout (AID 1047);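 also: HCT116 colon tumor cells with PTEN knocked out; cells exposed to compound for 60 hours before readout; potency for loss of cell viability measured by luminescence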", "format": "functional"}, "H4": {"system": "H4", "assay": "Luminescence Cell-Based Dose Response HTS to Identify Activators of 5'UTR Stem-Loop Driven Prion Protein mRNA Translation in H4 Neuroglioblastoma Cells. [Related pubchem assays: 1829 (Project Summary), 1814 (Primary HTS)]", "format": "functional", "conditions": "Homo sapiens"}, "[5]": {"assay": "Luminescence Cell-Based Dose Response HTS to Identify Activators of Luciferase Translation or Activity in H4 […] Cells. [Related pubchem assays: 1829 (Project Summary), 1814 (Primary HTS)]", "format": "functional"}, "[6]": {"assay": "growth suppression of beta-catenin-knockout colon cells, dose response, cell-based, HCT116, human colon tumor (AID 1045);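 also: HCT116 colon tumor cells with beta catenin knocked out; cells exposed to compound for 60 hours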", "format": "functional"}, "[7]": {"target": "T1, Heat shock 70 kDa protein 1A", "assay": "Hsp70 inhibitors, biochemical, TR-FRET (AID 786)"}, "[8]": {"assay": "Cytotoxicity screening for potential Inhibitors of Bacterial Capsule Biogenesis. [Related pubchem assays (depositor defined):AID488970]", "format": "functional"}, "[9]": {"target": "Protein-tyrosine kinase 2-beta (Homo sapiens, UniProt Q14289)", "sequence (Q14289 whole entry)": "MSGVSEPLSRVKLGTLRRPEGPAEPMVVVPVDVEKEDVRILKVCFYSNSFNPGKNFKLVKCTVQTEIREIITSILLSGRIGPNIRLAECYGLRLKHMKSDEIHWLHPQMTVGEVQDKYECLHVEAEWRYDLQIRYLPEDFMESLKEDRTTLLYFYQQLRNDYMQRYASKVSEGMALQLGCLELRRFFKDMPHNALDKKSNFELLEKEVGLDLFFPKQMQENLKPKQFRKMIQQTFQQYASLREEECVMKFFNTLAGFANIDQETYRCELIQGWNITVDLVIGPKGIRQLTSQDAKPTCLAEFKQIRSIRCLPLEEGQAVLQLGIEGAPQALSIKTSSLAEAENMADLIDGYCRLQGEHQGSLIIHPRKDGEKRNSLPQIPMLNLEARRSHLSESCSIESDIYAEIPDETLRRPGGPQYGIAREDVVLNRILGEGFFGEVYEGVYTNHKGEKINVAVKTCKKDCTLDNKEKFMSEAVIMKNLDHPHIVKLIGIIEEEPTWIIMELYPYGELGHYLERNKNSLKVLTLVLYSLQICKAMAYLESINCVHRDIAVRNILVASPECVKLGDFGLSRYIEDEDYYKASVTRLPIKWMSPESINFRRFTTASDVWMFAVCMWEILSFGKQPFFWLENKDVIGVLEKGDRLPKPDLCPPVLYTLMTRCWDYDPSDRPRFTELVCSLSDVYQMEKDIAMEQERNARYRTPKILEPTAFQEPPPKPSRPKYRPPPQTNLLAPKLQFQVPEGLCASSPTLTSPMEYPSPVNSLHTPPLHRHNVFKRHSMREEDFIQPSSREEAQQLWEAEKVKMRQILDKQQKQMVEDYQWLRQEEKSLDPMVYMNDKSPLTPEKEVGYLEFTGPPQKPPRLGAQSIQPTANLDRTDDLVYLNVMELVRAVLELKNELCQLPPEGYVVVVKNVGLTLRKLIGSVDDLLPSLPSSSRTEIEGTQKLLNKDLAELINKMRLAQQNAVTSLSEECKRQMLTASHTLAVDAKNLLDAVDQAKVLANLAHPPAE"}, "X-box-binding protein 1": {"target": "T2, X-box-binding protein 1 (Homo sapiens, UniProt P17861)", "T2 sequence (P17861 whole entry)": "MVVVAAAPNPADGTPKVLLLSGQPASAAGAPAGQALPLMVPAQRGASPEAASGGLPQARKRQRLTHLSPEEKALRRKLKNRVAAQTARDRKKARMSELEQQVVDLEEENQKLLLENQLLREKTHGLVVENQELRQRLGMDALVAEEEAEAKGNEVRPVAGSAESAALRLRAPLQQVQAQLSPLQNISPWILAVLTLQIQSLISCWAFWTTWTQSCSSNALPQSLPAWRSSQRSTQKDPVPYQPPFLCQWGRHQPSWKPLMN", "format": "functional, Cricetulus griseus"}, "[10]": {"target": "Signal transducer and activator of transcription 3 (Homo sapiens, UniProt P40763)", "sequence (P40763 whole entry)": "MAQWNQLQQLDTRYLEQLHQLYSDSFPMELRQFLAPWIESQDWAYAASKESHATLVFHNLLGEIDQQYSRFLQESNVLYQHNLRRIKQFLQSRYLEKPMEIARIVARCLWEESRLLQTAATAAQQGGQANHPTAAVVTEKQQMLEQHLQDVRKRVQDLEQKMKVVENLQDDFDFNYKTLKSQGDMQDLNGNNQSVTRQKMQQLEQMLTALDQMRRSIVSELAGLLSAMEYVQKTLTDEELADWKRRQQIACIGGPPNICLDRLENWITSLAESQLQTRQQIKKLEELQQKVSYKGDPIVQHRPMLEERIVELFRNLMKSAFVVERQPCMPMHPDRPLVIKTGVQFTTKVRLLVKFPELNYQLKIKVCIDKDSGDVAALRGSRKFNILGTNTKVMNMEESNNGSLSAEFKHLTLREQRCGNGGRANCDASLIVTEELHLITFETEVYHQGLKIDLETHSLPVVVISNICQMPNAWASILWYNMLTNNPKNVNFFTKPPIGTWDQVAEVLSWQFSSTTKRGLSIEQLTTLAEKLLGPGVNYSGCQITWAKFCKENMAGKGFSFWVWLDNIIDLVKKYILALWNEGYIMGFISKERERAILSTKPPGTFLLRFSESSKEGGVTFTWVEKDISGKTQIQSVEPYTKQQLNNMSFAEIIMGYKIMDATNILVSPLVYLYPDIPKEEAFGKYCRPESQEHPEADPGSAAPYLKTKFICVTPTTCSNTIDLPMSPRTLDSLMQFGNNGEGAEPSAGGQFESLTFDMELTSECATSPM", "assay": "STAT3 activators, late-stage profile, late-stage follow-up, cell-based, STAT1 reporter, BCL3 qPCR, cytotoxicity, panel member STAT3 Activation (AID 2049)"}, "[11]": {"assay": "cytotoxicity in HEK-293T cells, dose response, cytotoxicity control for TCR NF-kB inhibitor project, luminescence, T-cell screen hits (AID 489026);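 also: cells exposed to compound about 14 hours before the viability readout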", "format": "functional, cell-based"}, "J774.A1": {"system": "J774.A1", "assay": "Confirmation of image-based Screening Assay for Inhibitors of Phagocytosis. [Related pubchem assays (depositor defined):AID1029, AID1643]", "format": "functional, cell-based", "conditions": "Mus musculus"}, "[12]": {"target": "NACHT, LRR and PYD domains-containing protein 3 (Homo sapiens, UniProt Q96P20)", "sequence (Q96P20 whole entry, the tested form may be a part)": "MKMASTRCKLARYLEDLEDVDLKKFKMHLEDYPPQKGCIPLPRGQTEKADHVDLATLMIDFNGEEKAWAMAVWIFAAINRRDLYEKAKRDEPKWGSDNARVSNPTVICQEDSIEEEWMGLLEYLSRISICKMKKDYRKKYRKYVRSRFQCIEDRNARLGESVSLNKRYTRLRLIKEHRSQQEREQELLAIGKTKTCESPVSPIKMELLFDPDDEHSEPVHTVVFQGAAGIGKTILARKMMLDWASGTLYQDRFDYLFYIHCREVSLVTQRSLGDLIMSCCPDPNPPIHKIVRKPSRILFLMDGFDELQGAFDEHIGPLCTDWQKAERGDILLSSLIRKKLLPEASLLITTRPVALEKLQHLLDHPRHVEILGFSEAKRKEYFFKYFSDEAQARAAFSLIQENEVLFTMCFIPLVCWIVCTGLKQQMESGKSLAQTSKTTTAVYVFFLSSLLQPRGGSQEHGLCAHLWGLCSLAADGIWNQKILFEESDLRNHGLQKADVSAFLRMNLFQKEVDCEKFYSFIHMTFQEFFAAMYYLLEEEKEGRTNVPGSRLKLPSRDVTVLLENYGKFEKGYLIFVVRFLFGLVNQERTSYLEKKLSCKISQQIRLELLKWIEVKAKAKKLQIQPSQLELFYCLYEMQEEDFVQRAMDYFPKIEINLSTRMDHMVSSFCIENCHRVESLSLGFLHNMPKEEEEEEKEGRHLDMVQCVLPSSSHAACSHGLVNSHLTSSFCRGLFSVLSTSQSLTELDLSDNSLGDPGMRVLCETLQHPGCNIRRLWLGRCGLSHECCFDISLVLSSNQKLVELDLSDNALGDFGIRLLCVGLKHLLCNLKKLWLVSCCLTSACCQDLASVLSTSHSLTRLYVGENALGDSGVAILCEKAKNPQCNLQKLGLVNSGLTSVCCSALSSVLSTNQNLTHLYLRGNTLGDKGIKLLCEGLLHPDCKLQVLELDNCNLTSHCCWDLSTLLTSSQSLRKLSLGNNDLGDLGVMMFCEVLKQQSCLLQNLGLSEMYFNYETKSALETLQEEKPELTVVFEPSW", "assay": "NALP3 inhibitors in yeast, dose response, luminescent (AID 488799)", "format": "functional"}, "[13]": {"target": "Mitochondrial peptide methionine sulfoxide reductase (Bos taurus, UniProt P54149)", "sequence (P54149 whole entry)": "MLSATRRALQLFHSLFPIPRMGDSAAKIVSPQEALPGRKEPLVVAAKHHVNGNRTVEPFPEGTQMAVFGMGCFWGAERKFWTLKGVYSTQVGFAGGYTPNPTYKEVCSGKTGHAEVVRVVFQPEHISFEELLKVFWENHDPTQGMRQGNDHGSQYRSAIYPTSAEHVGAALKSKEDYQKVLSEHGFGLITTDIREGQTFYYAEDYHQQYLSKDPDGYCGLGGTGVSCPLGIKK", "assay": "Absorbance-based biochemical high throughput dose response assay for activators of Methionine sulfoxide reductase A (MsrA).", "format": "functional"}, "[14]": {"assay": "inhibitors of firefly luciferase expression or activity, dose response, H4 neuroglioma cells, luminescence (AID 1990)", "format": "functional, cell-based"}, "INS1": {"system": "INS1", "assay": "beta cell apoptosis inhibitors, cytokine rescue, dose response, luminescence, retest (AID 449756);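 also: cell death triggered by IL-1 beta plus TNF-alpha plus IFN-gamma mixture; protective hits raise ATP signal compared with cytokine alone wells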", "format": "functional, cell-based", "conditions": "Rattus norvegicus, INS1"}, "[15]": {"assay": "Luminescence Cell-Based Dose Response HTS to Identify Inhibitors of 5'UTR Stem-Loop Driven Prion Protein mRNA Translation in H4 Neuroglioblastoma Cells. [Related pubchem assays: 1827 (Project Summary), 1813 (Primary HTS)]", "format": "functional"}, "[16]": {"assay": "microbe, parasite or virus in culture", "format": "functional", "conditions": "Mycobacterium tuberculosis"}, "BJ [17]": {"system": "BJ", "assay": "cytotoxicity toward BJ-TERT-LT-ST fibroblasts, dose response, cell-based, RAS-independent, luminescence (AID 1935);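 also: BJ fibroblasts immortalized with TERT plus LT and ST oncogenes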", "format": "functional", "conditions": "Homo sapiens"}, "BJ [18]": {"system": "BJ", "assay": "cytotoxicity toward BJ-TERT fibroblasts, dose response, cell-based, RAS-independent, luminescence (AID 1933)", "format": "functional", "conditions": "Homo sapiens"}, "[19]": {"assay": "C. albicans growth with fluconazole, confirmation, fluorescence, retest (AID 2467)", "format": "functional, cell-based"}, "[20]": {"assay": "inhibitors of SNCA 5'UTR-driven reporter translation, confirmation, H4 neuroglioma cells, luminescence (AID 1988)", "format": "functional, cell-based"}, "[21]": {"assay": "NIH-3T3 fibroblast cytotoxicity, dose response, cytotoxicity control, cell-based, fluorescence, Alamar Blue, secondary assay (AID 2327);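 also: NIH-3T3 mouse fibroblasts cultured with fluconazole at 8 µg/mL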", "format": "functional"}, "BJ [22]": {"system": "BJ", "assay": "cells", "format": "functional, cell-based", "conditions": "Homo sapiens"}, "[23]": {"assay": "cytotoxicity toward DRD oncogenic fibroblasts, dose response, cell-based, non-viral oncogenic, luminescence (AID 1934)", "format": "functional", "conditions": "Homo sapiens"}, "[24]": {"target": "DNA dC->dU-editing enzyme APOBEC-3G (Homo sapiens, UniProt Q9HC16)", "sequence (Q9HC16 whole entry)": "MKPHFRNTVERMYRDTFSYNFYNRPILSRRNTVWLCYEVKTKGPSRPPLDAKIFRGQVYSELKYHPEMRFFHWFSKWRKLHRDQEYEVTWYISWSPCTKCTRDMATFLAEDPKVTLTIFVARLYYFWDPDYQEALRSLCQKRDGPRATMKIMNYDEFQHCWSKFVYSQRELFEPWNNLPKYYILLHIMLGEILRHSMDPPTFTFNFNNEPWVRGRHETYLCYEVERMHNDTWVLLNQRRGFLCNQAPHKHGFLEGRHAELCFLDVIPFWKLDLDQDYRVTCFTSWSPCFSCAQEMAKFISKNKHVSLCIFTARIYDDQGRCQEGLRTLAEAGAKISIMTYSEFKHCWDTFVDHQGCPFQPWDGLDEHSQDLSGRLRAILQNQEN", "assay": "Dose Response confirmation of small molecule APOBEC3G DNA Deaminase Inhibitors via a fluorescence-based single-stranded DNA deaminase assay. [Related pubchem assays (depositor defined):AID493012, AID493028]", "format": "functional"}, "[25]": {"target": "DNA dC->dU-editing enzyme APOBEC-3A (Homo sapiens, UniProt P31941)", "sequence (P31941 whole entry)": "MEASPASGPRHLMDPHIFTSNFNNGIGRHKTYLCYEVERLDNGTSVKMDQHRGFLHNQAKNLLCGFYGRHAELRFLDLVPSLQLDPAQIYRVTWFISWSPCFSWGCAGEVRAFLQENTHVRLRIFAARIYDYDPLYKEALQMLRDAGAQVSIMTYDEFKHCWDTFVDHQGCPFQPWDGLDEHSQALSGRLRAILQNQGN", "assay": "APOBEC3A DNA deaminase inhibitors, dose response, biochemical (AID 504722)", "format": "functional"}}, "note": "The source made the active and inactive calls.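 For Absolute IC50 (XBP1) in this document: confirmatory dose-response counter-screen serving a CHOP assay.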"}
{"smiles": "COc1ccc(/C=C\\C(=O)NCC(=O)N/N=C/c2ccc(O)cc2O)cc1", "values": [{"measurement": "IC50", "setting": "[1]", "result": "1.16 µM (active)"}]}
{"smiles": "O=C(ONc1ccc(N=NC(=O)c2ccccc2O)cc1)c1ccccc1", "values": [{"measurement": "IC50", "setting": "[2]", "result": "11.7 µM (active)"}, {"measurement": "EC50", "setting": "[3]", "result": "> 120 µM (not active)"}, {"measurement": "EC50", "setting": "[4]", "result": "20 µM (active)"}, {"measurement": "EC50", "setting": "H4", "result": "28.8 µM (active)"}, {"measurement": "EC50", "setting": "[5]", "result": "10.1 µM (active)"}, {"measurement": "EC50", "setting": "[6]", "result": "21.1 µM (active)"}, {"measurement": "IC50", "setting": "[7]", "result": "> 100 µM (not active)"}, {"measurement": "CC50", "setting": "[8]", "result": "45.1 µM (active)"}, {"measurement": "IC50", "setting": "[9]", "result": "5.49 µM (active)"}, {"measurement": "Absolute IC50 (XBP1)", "setting": "X-box-binding protein 1", "result": 10, "unit": "µM"}]}
{"smiles": "Nc1c(C(=O)Nc2ccccc2)noc1C(=O)c1ccccc1", "values": [{"measurement": "EC50", "setting": "[10]", "result": "> 55.7 µM (inactive)"}]}
{"smiles": "CCN(CC)c1ccc(NC(=O)c2cc(OC)cc(OC)c2)c(C)c1", "values": [{"measurement": "IC50", "setting": "[11]", "result": "> 80 µM (inactive)"}, {"measurement": "IC50", "setting": "J774.A1", "result": "0.13 µM (active)"}]}
{"smiles": "CCN(CC)c1ccc2nc3ccccc3[n+](CC)c2c1", "values": [{"measurement": "IC50", "setting": "[12]", "result": "14.3 µM (active)"}, {"measurement": "EC50", "setting": "[13]", "result": "19.2 µM (inactive)"}, {"measurement": "EC50", "setting": "[14]", "result": "11.2 µM (active)"}, {"measurement": "AC50", "setting": "INS1", "result": "0.602 µM (active)"}, {"measurement": "EC50", "setting": "[15]", "result": "25.9 µM (active)"}, {"measurement": "CC50", "setting": "[16]", "result": "> 40 µM (active)"}, {"measurement": "EC50", "setting": "BJ [17]", "result": "> 150 µM (inconclusive)"}, {"measurement": "EC50", "setting": "BJ [18]", "result": "16.9 µM (active)"}, {"measurement": "EC50", "setting": "[19]", "result": "0.686 µM (active)"}, {"measurement": "IC50", "setting": "[11]", "result": "48.8 µM (inactive)"}, {"measurement": "EC50", "setting": "[20]", "result": "9.49 µM (active)"}, {"measurement": "EC50", "setting": "[21]", "result": "96.1 µM (active)"}, {"measurement": "EC50", "setting": "BJ [22]", "result": "23.6 µM (active)"}, {"measurement": "EC50", "setting": "[23]", "result": "15.2 µM (active)"}]}
{"smiles": "FC(F)Oc1ccc(/C=N/n2c(S)nnc2Cc2ccc(Br)cc2)cc1", "values": [{"measurement": "IC50", "setting": "[24]", "result": "6.93 µM (active)"}, {"measurement": "IC50", "setting": "[25]", "result": "> 100 µM (inactive)"}]}
